Source: article PMC11796312, “Multifunctional, Fluorene‐Based Modulator of Cholinergic and GABAergic Neurotransmission as a Novel Drug Candidate for Palliative Treatment of Alzheimer's Disease” (Angewandte Chemie (International Ed. in English), 2024)
Values joined by “and” are separate entries in the source; they are usually repeats but may differ in a detail not shown here. Identical values can stand only once.

Columns and labels:
mGAT1 = mGAT1 (Mus musculus, UniProt P31648); assay: [3H]GABA uptake assay, mGAT1; format: cell-based
eeAChE = target: T1, eeAChE (Electrophorus electricus, UniProt O42275); assay: Cholinesterase inhibition, Ellman's protocol, eeAChE; format: biochemical; conditions: read-out: eeAChE % inh.
T1 construct: purchased Sigma-Aldrich
T1 sequence (O42275 24-633): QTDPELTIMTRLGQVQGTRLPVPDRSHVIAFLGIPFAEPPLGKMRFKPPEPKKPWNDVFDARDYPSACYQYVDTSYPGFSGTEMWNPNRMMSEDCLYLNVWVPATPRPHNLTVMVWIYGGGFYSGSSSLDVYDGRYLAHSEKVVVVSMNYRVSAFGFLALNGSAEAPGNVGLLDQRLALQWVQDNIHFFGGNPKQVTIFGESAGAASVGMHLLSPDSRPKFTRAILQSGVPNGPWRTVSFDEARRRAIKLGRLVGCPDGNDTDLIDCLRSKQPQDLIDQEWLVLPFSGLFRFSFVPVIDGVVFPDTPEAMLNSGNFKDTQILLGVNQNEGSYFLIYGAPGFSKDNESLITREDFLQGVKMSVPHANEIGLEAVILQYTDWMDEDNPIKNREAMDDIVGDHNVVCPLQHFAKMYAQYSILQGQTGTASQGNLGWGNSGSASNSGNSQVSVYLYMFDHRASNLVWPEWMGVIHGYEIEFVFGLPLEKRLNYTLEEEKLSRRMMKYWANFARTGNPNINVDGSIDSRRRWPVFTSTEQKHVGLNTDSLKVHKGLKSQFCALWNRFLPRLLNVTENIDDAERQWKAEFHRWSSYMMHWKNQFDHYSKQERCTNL
Description: In vitro pharmacological assays.
The in vitro inhibitory activity toward cholinesterases (eeAChE, eqBuChE,
The target compounds were tested for their inhibitory potency against cholinesterases using
Ellman’s protocol[32] modified for 96-well microplates.
The stock solutions of the
target compounds were prepared in DMSO and diluted with water, giving the desired final
concentrations. The enzymes were prepared as 5 U/mL aqueous stock solutions and diluted
(AChE or BuChE) were added to the reaction mixture in the wells, containing 25 μL of the
target compound (in case of blank samples – water or water/DMSO mixture), 200 μL of 0.1
M phosphate buffer (pH = 8.0) and 20 μL of 5,5'-dithiobis-(2-nitrobenzoic acid) DTNB
All those reagents were preincubated for 5 min at 25 °C for the reactions with the
animal enzymes (eeAChE or eqBuChe) and 36 °C for the human enzyme ( hBuChE) tests. The
enzymatic reaction was initiated by the addition of 20 μL of substrate acetylthiocholine iodide
using the EnSpire multimode microplate reader (PerkinElmer, Waltham, MA, USA). Target
compounds were tested at the screening concentrations of 10 μM or 1 µM for inhibitory
potencies towards animal cholinesterases or human enzyme, respectively. Percent of enzyme
inhibition was calculated based on the formula 100 -(S/B)x100, where S and B were the
respective enzyme activities with and without the test compound, respectively. Compounds
with the enzyme inhibitory activities at 10 μM better than 50% ( eeAChE or eqBuChe) and at
were based on the absorbance measured at seven different inhibitor concentrations, then
percentages of enzymes’ inhibition were plotted against the applied inhibitor concentrations
using nonlinear regression (GraphPad Prism 9; GraphPad Software, San Diego, CA, USA).
All the experiments were performed in
a %inh. at an inhibitor concentration of 10 µM

mGAT2 = target: T2, mGAT2 (Mus musculus, UniProt P31651); assay: [3H]GABA uptake assay, mGAT2; format: cell-based
T2 sequence (P31651 1-614): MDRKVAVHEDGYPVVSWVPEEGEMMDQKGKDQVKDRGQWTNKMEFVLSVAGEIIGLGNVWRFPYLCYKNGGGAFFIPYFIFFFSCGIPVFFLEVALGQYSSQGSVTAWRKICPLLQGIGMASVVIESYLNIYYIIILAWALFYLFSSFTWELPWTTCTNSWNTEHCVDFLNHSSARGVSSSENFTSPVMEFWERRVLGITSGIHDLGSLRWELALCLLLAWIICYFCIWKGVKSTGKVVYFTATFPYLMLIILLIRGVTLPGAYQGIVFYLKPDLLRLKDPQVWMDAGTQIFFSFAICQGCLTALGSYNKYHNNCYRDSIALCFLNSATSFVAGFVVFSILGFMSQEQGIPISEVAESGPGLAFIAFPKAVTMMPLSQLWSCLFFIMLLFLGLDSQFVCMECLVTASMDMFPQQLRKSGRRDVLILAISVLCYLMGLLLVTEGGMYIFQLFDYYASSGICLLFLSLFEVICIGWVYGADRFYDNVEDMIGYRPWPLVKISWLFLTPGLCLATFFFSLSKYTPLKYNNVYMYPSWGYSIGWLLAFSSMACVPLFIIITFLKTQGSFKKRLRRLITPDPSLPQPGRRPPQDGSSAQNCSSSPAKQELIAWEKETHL

[1] = Metabolic stability in human liver microsomes; format: in vitro ADME; conditions: 120 min incubation with HLMs
Description: The in silico prediction of the most probable sites of metabolism was done by MetaSite 6.0.1 software (Molecular Discovery Ltd, Hertfordshire, UK). The metabolic pathways determination in vitro was performed by 120 min compounds incubation with human liver microsomes (HLMs) purchased from Sigma-Aldrich, St. Louis, MO, USA. The reactions were conducted in 10 mM Tris–HCl buffer (pH 7.4) at 37 °C in the presence of NADPH Regeneration System (Promega, Madison, WI, USA). UPLC/MS analyses were done using the Waters ACQUITY TQD system with the TQ Detector (Waters, Milford, USA).
UPLC chromatograms of the reaction mixtures and the proposed structures of metabolites.
Figure S46. UPLC spectra after 120 min incubation of compound 6 with HLMs. 89.57% of the parent compound remained in the reaction mixture. One metabolite (M1, m/z = 460.30) […]
(1 picture or pasted object on this page, not shown here)

[2] = target: serotonin transporter (SERT) (Homo sapiens, UniProt P31645); assay: Interaction with serotonin transporter
Chain of serotonin transporter (SERT) (P31645 whole entry, species assumed, canonical isoform): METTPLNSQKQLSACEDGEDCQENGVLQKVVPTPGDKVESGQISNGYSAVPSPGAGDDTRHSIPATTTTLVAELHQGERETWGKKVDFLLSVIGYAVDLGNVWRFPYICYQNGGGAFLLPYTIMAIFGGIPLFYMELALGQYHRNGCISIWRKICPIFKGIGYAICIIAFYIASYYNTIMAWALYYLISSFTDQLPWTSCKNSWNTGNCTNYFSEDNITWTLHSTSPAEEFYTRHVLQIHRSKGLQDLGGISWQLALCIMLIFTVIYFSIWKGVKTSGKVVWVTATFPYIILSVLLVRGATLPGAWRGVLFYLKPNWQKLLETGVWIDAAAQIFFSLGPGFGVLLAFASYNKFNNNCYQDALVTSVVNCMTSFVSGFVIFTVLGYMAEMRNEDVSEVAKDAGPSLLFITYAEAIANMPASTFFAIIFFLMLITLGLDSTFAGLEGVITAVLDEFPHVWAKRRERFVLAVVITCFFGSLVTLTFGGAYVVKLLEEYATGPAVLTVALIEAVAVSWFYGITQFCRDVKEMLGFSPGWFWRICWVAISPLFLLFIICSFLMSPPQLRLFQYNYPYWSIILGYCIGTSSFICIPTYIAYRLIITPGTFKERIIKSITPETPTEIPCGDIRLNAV

human CYP2D6 = target: T3, human CYP2D6 (Homo sapiens, UniProt P10635); assay: Inhibition of human CYP450 isoforms (Vivid kits); format: in vitro ADME; conditions: recombinant CYP2D6, 10 min
T3 construct: purchased Thermo Fisher Scientific
T3 sequence (P10635 whole entry, canonical isoform): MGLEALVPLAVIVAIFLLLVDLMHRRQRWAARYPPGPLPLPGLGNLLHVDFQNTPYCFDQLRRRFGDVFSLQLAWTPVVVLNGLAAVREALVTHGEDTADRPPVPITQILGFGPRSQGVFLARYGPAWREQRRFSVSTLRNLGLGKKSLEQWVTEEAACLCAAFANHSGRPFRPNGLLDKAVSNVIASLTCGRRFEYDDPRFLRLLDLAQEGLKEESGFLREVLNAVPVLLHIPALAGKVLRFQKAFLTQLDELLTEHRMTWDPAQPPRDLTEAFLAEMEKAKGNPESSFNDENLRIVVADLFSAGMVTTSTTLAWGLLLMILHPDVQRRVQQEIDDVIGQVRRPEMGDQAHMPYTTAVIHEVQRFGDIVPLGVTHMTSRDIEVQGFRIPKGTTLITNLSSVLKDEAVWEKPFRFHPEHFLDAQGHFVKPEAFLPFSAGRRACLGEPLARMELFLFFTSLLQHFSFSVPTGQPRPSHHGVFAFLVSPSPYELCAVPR
Description: nonlinear regression analysis using GraphPad Prism 9.0 software. All values are expressed as […]
Table S10. The viability of cells. neurotoxicity immuntoxicity
The results (viability values) are provided as a percentage of live cells with respect to DMSO (control sample)
Table S11. The viability of cells. […]
Inhibition of human CYP450 isoforms
The inhibitory potential of compound 6 toward human CYP1A2, CYP2C9, CYP2D6, and CYP3A4 enzymes was assessed using Vivid® CYP450 Screening Kits (Thermo Fisher Scientific, Waltham, MA, USA). A six -point concentration gradient of compound 6 was prepared in reaction buffer and pipetted onto a black 96 -well plate (Brand, Wertheim Germany) and then a mixture of the respective recombinant CYP isoenzyme and the NADPH regeneration system was added, following the manufacturer’s instructions. The DMSO concentration was maintained at 0.5% in all reaction v ariants including controls. […]
adding NADP+ and the respective CYP isoenzyme substrate. After a further 10-minute incubation at 37°C, the formation of the reaction product was measured as fluorescence using a SPARK microplate reader (TECAN, Männedorf, Switzerland). The half-maximal inhibitory concentration (IC50) values were calculated by fitting the data to sigmoidal Hill curves using GraphPad Prism version 10.1.2. […]

mGAT4 = target: T4, mGAT4 (Mus musculus, UniProt P31650); assay: [3H]GABA uptake assay, mGAT4; format: cell-based
T4 sequence (P31650 1-627): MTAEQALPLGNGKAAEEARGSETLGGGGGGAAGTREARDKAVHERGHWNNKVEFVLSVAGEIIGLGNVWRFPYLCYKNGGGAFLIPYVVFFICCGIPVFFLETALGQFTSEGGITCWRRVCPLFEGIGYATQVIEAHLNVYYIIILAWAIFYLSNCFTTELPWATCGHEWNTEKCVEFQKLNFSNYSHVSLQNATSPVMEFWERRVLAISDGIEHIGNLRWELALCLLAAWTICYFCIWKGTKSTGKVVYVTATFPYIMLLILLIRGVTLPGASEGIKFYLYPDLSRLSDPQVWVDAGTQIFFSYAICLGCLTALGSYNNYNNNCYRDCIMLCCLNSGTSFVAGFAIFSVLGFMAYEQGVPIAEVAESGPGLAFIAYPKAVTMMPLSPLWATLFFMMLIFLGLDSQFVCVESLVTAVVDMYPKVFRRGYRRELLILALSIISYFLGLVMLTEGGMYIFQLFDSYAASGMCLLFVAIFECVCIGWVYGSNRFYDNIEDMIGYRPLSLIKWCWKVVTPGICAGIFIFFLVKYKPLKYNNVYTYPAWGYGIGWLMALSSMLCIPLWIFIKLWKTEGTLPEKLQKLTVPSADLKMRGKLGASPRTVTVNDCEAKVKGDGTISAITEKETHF

SH-SY5Y cells = assay: Intracellular RONS, DCFH-DA probe, SH-SY5Y; format: cell-based, human; conditions: IC50, ½ IC50, ¼ IC50, 1, 4, 24 h
eqBuChE = target: T5, eqBuChE (Equus caballus, UniProt P81908); assay: biochemical; conditions: means±SEM of at least three experiments
T5 construct: purchased Sigma-Aldrich
T5 sequence (P81908 whole entry): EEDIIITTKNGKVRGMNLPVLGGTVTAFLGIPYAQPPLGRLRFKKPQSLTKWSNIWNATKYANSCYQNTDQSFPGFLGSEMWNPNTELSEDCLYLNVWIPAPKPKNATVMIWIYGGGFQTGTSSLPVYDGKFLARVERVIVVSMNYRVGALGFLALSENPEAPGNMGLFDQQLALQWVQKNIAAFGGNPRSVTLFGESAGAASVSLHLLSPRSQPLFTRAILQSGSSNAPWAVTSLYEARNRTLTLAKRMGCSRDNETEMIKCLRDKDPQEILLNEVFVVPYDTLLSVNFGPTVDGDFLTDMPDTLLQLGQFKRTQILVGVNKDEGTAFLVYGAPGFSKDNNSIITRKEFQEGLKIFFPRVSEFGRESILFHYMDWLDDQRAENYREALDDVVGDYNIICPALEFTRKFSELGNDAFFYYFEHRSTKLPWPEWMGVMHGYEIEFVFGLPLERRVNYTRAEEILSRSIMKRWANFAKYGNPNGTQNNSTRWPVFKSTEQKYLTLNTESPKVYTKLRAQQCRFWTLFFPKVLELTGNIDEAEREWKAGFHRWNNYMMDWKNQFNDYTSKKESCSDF

Structure (SMILES): O[C@H](CNCC1CC1)[C@H](Cc1ccccc1)NC1c2ccccc2-c2ccccc21 [Compound 6]
- IC50 (mGAT1): 11 µM
- inhibition at 10 µM (eeAChE): < 10%
- IC50 (mGAT2): 10.7 µM
- parent compound remaining [1]: 90% and 89.57%
- interaction with SERT [2]: ruled out interactions
- CYP2D6 inhibition (human CYP2D6): CYP2D6 inhibitor
- IC50 (mGAT4): 7.76 ± 0.36 µM
- increase in intracellular RONS (SH-SY5Y cells): no significant increase
- IC50 (eqBuChE): 0.31 ± 0.01 µM
